Legend:
tomato seedlings = experiment: Abscisic acid-induced stomatal closure inhibitory activity, second evaluation (foliar spray, ratio of open stomata); assay type: in vivo, tomato (cultivar: Ponderosa); conditions: for ratio of open stomata as compared to without the addition (student's t-test) / ratio of open stomata as compared to without the addition: 30 μM abscisic acid
Method: (§1) On Jun. 31, 2018, a seedling pot (Bee pot Y-55, manufactured by CANELON C.E) was filled with the culture soil, Kumiai Gardening Seedling Culture Soil AISAI No. 1 (manufactured by Katakura & Co-op Agri Corporation), to be level with the upper side of the pot. Two seeds of tomato (cultivar: Ponderosa) were planted in each pot, and the seedling pot was placed in a climate chamber (25° C., dark period/bright period: 11 h/13 h, bright period: 6:00 a.m. to 19:00 p.m.) at the Cultivation Research Center of OAT Agrio Co., Ltd. Water was supplied from the bottom of the pot, and plants were selected at the time of cotyledon development. At 8:30 a.m. on August 21, chemical solutions each prepared by dissolving 100 ppm of Tween (registered trademark) 80, 30 μM of abscisic acid, and 0 (Comparative Example 12), 100, 300, or 500 μM of steviol were sprayed evenly onto above-ground parts of crops grown to a plant age of about 4 in leaf number. At 11:30 a.m. and 16:00 p.m. on the same day, stomata on the underside of the top leaflet of the second leaf of crops were sampled on a cover glass with an instant adhesive (instant bond for general use AronAlpha (registered trademark) manufactured by TOAGOSEI CO., LTD.) thereon to prepare samples for stomatal observation. These samples were observed under a microscope (magnification 1,000×) to count the number of open or closed stomata in 100 or more stomata, and the ratio of open stomata was calculated according to the following equation:
ratio (%) of open stomata=100×(number of open stomata)/(total number of investigated stomata) (Equation)
(§2) The investigations were made in quadruplicate for each treatment condition. A significance test was performed by student's t-test on the ratio of open stomata obtained from the investigation of each individual plant against the ratio of open stomata obtained for the plot without the addition of steviol (0 μm: Comparative Example 12).
as §1, with “Feb. 27,” for “Jun. 31,”, “March 15,” for “August 21,”, “13),” for “12), 100,”, “stevioside” for “steviol”, “3” for “4”, “equation: […]” for “equation:”
as §2, with “stevioside” for “steviol”, “13).” for “12).”
On Mar. […]

[1] = test system: lower epidermis of Commelina benghalensis L.; experiment: Stomatal opening promoting activity in a bright place (stomatal aperture of peeled lower epidermis); assay type: cell-based; conditions: for Stomatal Aperture: bright place 3 hours, mean±standard deviation
Method: The lower epidermis of Commelina benghalensis L. was peeled off, immersed in the stomatal aperture measurement solution, and allowed to stand still in a dark place for 2 hours. Then, the lower epidermis of Commelina benghalensis L. was immersed in test solutions prepared by adding steviol to the stomatal aperture measurement solution to give 100 or 300 μM (final concentration) or in the stomatal aperture measurement solution without the addition of steviol (Comparative Example 1), and allowed to stand still in a bright place for 3 hours. The lower epidermis of Commelina benghalensis L. after immersion in the test solutions was photographed with a digital camera (LCD (Liquid Crystal Display), manufactured by KENIS LIMITED) attached to a microscope (Olympus BH2; objective lens SPlan 10 [manufactured by Olympus Corporation] magnification 200×). The stomatal aperture was measured with measurement software (digital microanalyzer, manufactured by Nippon Polaroid Corporation; Polaroid is the registered trademark). The stomatal aperture was measured for 80 or more stomata, for each addition concentration. The stomatal aperture obtained at each addition concentration was compared with the stomatal aperture obtained without the addition of steviol (0 μM, Comparative Example 1), and statistical analysis was performed by student's t-test.
The lower epidermis of Commelina benghalensis L. that had been peeled off was immersed in the stomatal aperture measurement solution, and allowed to stand still in a dark place for 2 hours. Then, the lower epidermis of Commelina benghalensis L. was immersed in test solutions prepared by adding FARM A to the stomatal aperture measurement solution to give a 500- or 250-fold dilution (final concentration) or in the stomatal aperture measurement solution without the addition of FARM A (Comparative Example 2), and allowed to stand still in a bright place for 3 hours. Then, the stomatal aperture was measured as in Example 1.

[2] = 100 μM with 30 μM abscisic acid, sprayed 8:30, Time (11:30)
[3] = 300 μM with 30 μM abscisic acid, sprayed 8:30, Time (11:30)
[4] = 500 μM with 30 μM abscisic acid, sprayed 8:30, Time (11:30)
[5] = every addition concentration (100, 300, 500 μM) and every investigation time
[6] = 300 μM with 30 μM abscisic acid, sprayed 8:30, Time (16:00)
[7] = 500 μM with 30 μM abscisic acid, sprayed 8:30, Time (16:00)

Row | SMILES | Ratio (%) of Open Stomata (tomato seedlings; [2]) [%] | Ratio (%) of Open Stomata (tomato seedlings; 100 μM with 30 μM abscisic acid, sprayed 8:30, Time (16:30)) [%] | Ratio (%) of Open Stomata (tomato seedlings; [3]) [%] | Ratio (%) of Open Stomata (tomato seedlings; 300 μM with 30 μM abscisic acid, sprayed 8:30, Time (16:30)) [%] | Ratio (%) of Open Stomata (tomato seedlings; [4]) [%] | Ratio (%) of Open Stomata (tomato seedlings; 500 μM with 30 μM abscisic acid, sprayed 8:30, Time (16:30)) [%] | ratio of open stomata as compared to without the addition (student's t-test) (tomato seedlings; 300 and 500 μM) | ratio of open stomata as compared to without the addition (tomato seedlings; [5]) | Ratio (%) of Open Stomata (tomato seedlings; [6]) [%] | Ratio (%) of Open Stomata (tomato seedlings; [7]) [%] | ratio of open stomata as compared to without the addition (student's t-test) (tomato seedlings; addition concentrations and investigation times other than 500 μM at 11:30 a.m.) | ratio of open stomata as compared to without the addition (tomato seedlings; every addition concentration (300, 500 μM) and every investigation time) | stomatal aperture as compared to without the addition (student's t-test) ([1]; 300 μM, bright place) | stomatal aperture as compared to without the addition ([1]; 100 or 300 μM, bright place) | Stomatal Aperture ([1]; addition concentration 100 μM) [μm] | Stomatal Aperture ([1]; addition concentration 300 μM) [μm] | Ratio (%) of Open Stomata (tomato seedlings; 100 μM with 30 μM abscisic acid, sprayed 8:30, Time (16:00)) [%] | ratio of open stomata as compared to without the addition (student's t-test) (tomato seedlings; [5])
1 | C=C1C[C@@]23CC[C@H]4[C@@](C)(CCC[C@@]4(C)C(=O)O[C@@H]4O[C@H](CO)[C@@H](O)[C@H](O)[C@H]4O)[C@@H]2CC[C@]1(O[C@@H]1O[C@H](CO)[C@@H](O)[C@H](O[C@@H]2O[C@H](CO)[C@@H](O)[C@H](O)[C@H]2O)[C@H]1O[C@@H]1O[C@H](CO)[C@@H](O)[C@H](O)[C@H]1O)C3 [rebaudioside A] | 56.6 ± 5.8 | 50.0 ± 3.2 | 58.6 ± 4.6 | 51.2 ± 2.1 | 56.5 ± 3.8 | 54.0 ± 6.6 | statistically significant improvement in the ratio of open stomata | an improvement in the ratio of open stomata | – | – | – | – | – | – | – | – | – | –
2 | C=C1C[C@@]23CC[C@H]4[C@@](C)(CCC[C@@]4(C)C(=O)O[C@@H]4O[C@H](CO)[C@@H](O)[C@H](O)[C@H]4O)[C@@H]2CC[C@]1(O[C@@H]1O[C@H](CO)[C@@H](O)[C@H](O)[C@H]1O[C@@H]1O[C@H](CO)[C@@H](O)[C@H](O)[C@H]1O)C3 [stevioside] | – | – | 65.1 ± 6.4 | – | 45.7 ± 2.7 | – | – | – | 58.0 ± 4.2 | 54.6 ± 3.8 | statistically significant improvement in the ratio of open stomata | an improvement in the ratio of open stomata | – | – | – | – | – | –
3 | C=C1C[C@@]23CC[C@H]4[C@@](C)(CCC[C@@]4(C)C(=O)O)[C@@H]2CC[C@]1(O)C3 [steviol] | 69.0 ± 5.5 | – | 62.7 ± 2.5 | – | 60.1 ± 7.5 | – | – | – | 61.9 ± 4.6 | 62.5 ± 6.8 | – | – | statistically significant increase in the stomatal aperture | an increase in the stomatal aperture | 15.16 ± 0.33 | 16.95 ± 0.37 | 69.3 ± 3.5 | statistically significant improvement in the ratio of open stomata
